Test results published in patent US11220534B2, “Treatment of neurological diseases” (Lancaster University Business Enterprises Limited, priority 2016, dated 2022).
Where no end group is shown, it is not given here. [ ]: non-standard residue; d: D form. Aib = CC(C)(N)C(=O)O

How the values were obtained:
Format in all cases: in vivo
APP/PS1 transgenic mice [1] = assay: Immunohistochemical measurement of synaptic densities (synaptophysin) in the cortex of APP/PS1 transgenic mice; settings: 10 nmol/kg i.p. once daily for 8 weeks, FIG. 2, N=6 per group
Text: (§1) Animal models have been developed to test novel drugs. A standard model for Alzheimer's disease is transgenic mice that express human mutated genes for amyloid production that are known to induce Alzheimer's disease in humans. These APP/PS1 transgenic mice recapitulate some of the symptoms of Alzheimer's disease such as the aggregation of amyloid in the brain, memory loss and the loss of synapses (Radde et al., 2006).
(§2) The APP/PS1 mice express human Swedish mutated APP and human mutated presenilin-1 which induce Alzheimer's Disease in humans.
(§3) The dose of peptide tested was 10 nmol/kg body weight. The peptides were administered by a once-daily intraperitoneal injection for 8 weeks. Saline injections were administered as a control. Six animals per group were injected with a peptide or a saline control.
Animals (6 per group) were perfused transcardially with 30 ml of ice-cold PBS and 30 ml of ice-cold 4% paraformaldehyde to postfix the brain. The brains were removed and placed in fresh 30% sucrose solution in PBS to cryoprotect tissue and cut at a thickness of 40 μm on a cryostat. Sections were chosen according to stereological rules, with the first section taken at random and every 5th section afterwards. Between 7 and 13 sections were analysed per brain. […]

[2] = test system: PI3K/AKT/GSK3β signalling pathway; assay: Western blotting for hippocampal levels of PI3K/AKT/GSK3β; settings: APP/PS1 mice; FIG. 11; N=6 per group
Text: Materials and methods in Example 2 are the same as Example 1 except when stated. Reagents used in Example 2 only include antibodies to p-PI3Kp85, PI3Kp85, p-Akt (ser473), Akt, p-GSK3β ([…]), and GSK3β from Abcam, Inc. Cambridge, UK. The antibody to p-tau (AT8) from Thermo Scientific USA. Mouse Anti-β-actin, Anti-Rabbit IgG, Anti-mouse IgG, CY3-Anti-mouse IgG, RIPA Lysate, BCA Protein Assay Kit, DAPI staining solution and Anti-fluorescence decay agent from Boster (Wuhan, China). The hippocampi of mouse were dissected and homogenized in tissue protein extraction reagent, and protein concentration was measured using BCA Protein Assay Kit. A total of 50 μg of protein was used from each sample. Sample proteins were separated on 12% SDS-polyacrylamide gels. After that, the proteins were transferred onto PVDF membranes and nonspecific binding was blocked with 5% BSA. A primary antibody was used to incubate the membranes overnight at 4° C., followed by a secondary antibody for 2 h. The optical density of the target strip (p-PI3K, t-PI3K, p-AKT, t-AKT, p-GSK3β and t-GSK3β) was analyzed by using a gel image processing system. Data were analysed using a one-way ANOVA with post-hoc Bonferroni tests. The results are illustrated in FIGS. 5 to 11.

APP/PS1 transgenic mice [3] = assay: Immunohistochemical measurement of beta-amyloid plaque load in the cortex of APP/PS1 transgenic mice
Text: as §1, §2, §3
Animals (6 per group) were perfused transcardially with 30 ml of ice-cold PBS and 30 ml of ice-cold 4% paraformaldehyde to postfix the brain. The brains were removed and placed in fresh 30% sucrose solution in PBS to cryoprotect tissue and cut at a thickness of 40 μm on a cryostat. Sections were chosen according to stereological rules, with the first section taken at random and every 5th section afterwards. Between 7 and 13 sections were analysed per brain.
Immunostaining techniques were used to assess the neuronal plaque load (anti beta-amyloid rabbit polyclonal antibody (1:200, rabbit polyclonal-Invitrogen 71-5800) and of synaptophysin (polyclonal rabbit anti-synaptophysin primary antibody, 1:2000, Abcam, Cambridge, UK) to measure the amount of synapses in the cortex. Brain samples were first exposed to 99% formic acid for 7 minutes and then washed 3 times for 10 minutes in TBS. Pre-treatment with 99% formic acid is known to drastically increase the detection of beta-Amyloid in formalin-fixed brain samples. Then samples were incubated in 0.3% H2O2 (Sigma Aldrich; Cat.-No.: 516813) in TBS for 30 minutes on the shaker to deplete endogenous peroxides activity, and were 3 times washed in TBS for 10 minutes afterwards.
To increase permeability of membranes in the brain tissue, samples were exposed to 0.3% Triton X-100 (Sigma Aldrich; Cat.-No.: 516813) in TBS for 10 minutes on the shaker. Unspecific proteinophilic binding in the tissue was saturated by incubating the samples with 5% goat serum (Gibco; Cat.-No.: 16210-064) in TBS for 30 minutes on the shaker.
A primary antibody against beta-Amyloid or synaptophysin was added and incubated overnight on the shaker at 4° C. The antibody was polyclonal and raised against a synthetic beta-Amyloid 1-43 peptide in rabbit. The primary antibody was used in a final dilution of 1 to 250 in TBS containing 2% goat serum and […]. […]

YXEGTFTSDYSIYLDKQAAXEFVNWLLAGGPSSGAPPPSKRRQRRKKRGY-NH2 (Y[Aib]EGTFTSDYSIYLDKQAA[Aib]EFVNWLLAGGPSSGAPPPSKRRQRRKKRGY-NH2) [DA5, No. 12; X=aminoisobutyric acid]
synapse loss / synaptic densities in the cortex (APP/PS1 transgenic mice [1]): protected from synapse loss
activation of GSK3β / PI3K/AKT signalling (western blot, hippocampus) [2]: prevents excessive activation of GSKβ by upregulating P13/AKT signalling
beta-amyloid plaque load in the cortex (% area positive for beta amyloid in cross sections of the brain cortex) (APP/PS1 transgenic mice [3]; 10 nmol/kg body weight, once-daily intraperitoneal injection for 8 weeks, FIG. 1, N=6 per group): reduces beta-amyloid plaque load
beta-amyloid plaque load compared with the single GIP or GLP-1 analogues (APP/PS1 transgenic mice [3]; 10 nmol/kg i.p. once daily for 8 weeks, FIG. 1): superior to the single GIP or GLP-1 analogues
